Test results: US20220031596A1, “ANTI-AGING AGENT AND ANTI-AGING METHOD” (priority 2018, published 2022)

How the values were obtained:
Assay type in all cases: in vivo, human
[1] = Safety observation in subjects after ingestion for 24 weeks (complaints, stool abnormality); settings: healthy males and females aged 50 to 70 years, oral
Procedure: (§1) Each group consisting of five healthy males and females aged 50 to 70 years in an unbiased age group ingested the above low dose capsule formulation once a day by 4 capsules for 24 weeks (total 10 subjects, a low dose group: 100 mg/daily ingestion). On the other hand, each group consisting of five healthy males and females aged 50 to 70 years in the unbiased age group ingested the above high dose capsule formulation once a day by 4 capsules for 24 weeks (total 10 subjects, a high dose group: 200 mg/daily ingestion). In order to conduct appropriate evaluations, those who had been regularly using medical products for chronic diseases, those who had been consuming healthy foods that may affect clinical research, and those who were currently participating in other clinical researches or clinical trials, or had participated in other clinical researches or clinical trials within the last three months were excluded from the subject for the evaluation. The capsule formulations were ingested at 10 am (between meals and fasting state) together with water or lukewarm water (oral administration).

[2] = test system: testosterone concentration in the plasma; assay: Evaluation of testosterone secretion promoting effect (plasma testosterone, 24-week oral ingestion); settings: for testosterone concentration in the plasma, 0 weeks (before ingestion) / testosterone concentration in the plasma, 24 weeks (after ingestion) / testosterone concentration in the plasma, Change rate (24 weeks - 0 weeks): High Dose Group (200 mg/daily, oral), mean±SD; for testosterone concentration in the plasma, 0 weeks (before ingestion): baseline
Procedure: In order to confirm a change in the testosterone quantity before and after ingestion of the nicotinamide mononucleotide, a test was conducted on healthy males and females aged 50 to 70 years.
As a sample of Working Example 8, a capsule formulation containing the nicotinamide mononucleotide and starch (200 mg of the nicotinamide mononucleotide in 4 capsules) (manufactured by SHINKOWA PHARMACEUTICAL Co., Ltd.) was used.
as §1, with “above” for “above low dose capsule formulation once a day by 4 capsules for 24 weeks (total 10 subjects, a low dose group: 100 mg/daily ingestion). On the other hand, each group consisting of five healthy males and females aged 50 to 70 years in the unbiased age group ingested the above”, “subjects,” for “subjects, a high dose group:”, “trials” for “trials,”
Measurement of the testosterone quantity in the plasma was conducted by requesting the measurement to an external public organization according to a usual method. FIGS. 16a to 16c indicate transitions of the testosterone concentration (ng/ml) in the plasma for 24 weeks. FIG. 16a represents the transitions of the whole subjects; FIG. 16b represents the transitions of the male subjects; FIG. 16c represents the transitions of the female subjects. Further, FIGS. 17a to 17c indicate change rates (%) of the blood testosterone concentration up to 24 weeks when the nicotinamide mononucleotide was orally administered to the subjects for 24 weeks. FIG. 17a represents the change rates of the whole subjects; FIG. 17b represents the change rates of the male subjects; FIG. 17c represents the change rates of the female subjects. Further, Table 8 indicates the numerical values of the testosterone concentration (ng/ml) in the plasma before the ingestion of the nicotinamide mononucleotide (0 weeks) and after the ingestion of the nicotinamide mononucleotide (24 weeks). Note that the numerical values represent mean values±standard deviation.

[3] = test system: thyroid-stimulating hormone concentration in the plasma; assay: Evaluation of thyroid-stimulating hormone secretion promoting effect (plasma TSH, 24-week oral ingestion); settings: for thyroid-stimulating hormone concentration in the plasma, 0 weeks (before ingestion) / thyroid-stimulating hormone concentration in the plasma, 24 weeks (after ingestion) / thyroid-stimulating hormone concentration in the plasma, Change rate (24 weeks - 0 weeks): High Dose Group (200 mg/daily, oral), mean±SD; for thyroid-stimulating hormone concentration in the plasma, 0 weeks (before ingestion): baseline
Procedure: In order to confirm a change in the thyroid-stimulating hormone quantity before and after ingestion of the nicotinamide mononucleotide, a test was conducted on healthy males and females aged 50 to 70 years.
As a sample of Working Example 4, a capsule formulation containing the nicotinamide mononucleotide and starch (200 mg of the nicotinamide mononucleotide in 4 capsules) (manufactured by SHINKOWA PHARMACEUTICAL Co., Ltd.) was used.
as §1, with “above” for “above low dose”, “subjects,” for “subjects, a low dose group: 100 mg/daily ingestion). On the other hand, each group consisting of five healthy males and females aged 50 to 70 years in the unbiased age group ingested the above high dose capsule formulation once a day by 4 capsules for 24 weeks (total 10 subjects, a high dose group:”, “trials” for “trials,”
Measurement of the thyroid-stimulating hormone quantity in the plasma was conducted by requesting the measurement to an external public organization according to a usual method. FIGS. 8a to 8c indicate transitions of the thyroid-stimulating hormone concentration (μU/ml) in the plasma for 24 weeks. FIG. 8a represents the transitions of the whole subjects; FIG. 8b represents the transitions of the male subjects; FIG. 8c represents the transitions of the female subjects. Further, FIGS. 9a to 9c indicate change rates (%) of the blood thyroid-stimulating hormone concentration up to 24 weeks when the nicotinamide mononucleotide was orally administered to the subjects for 24 weeks. FIG. 9a represents the change rates of the whole subjects; FIG. 9b represents the change rates of the male subjects; FIG. 9c represents the change rates of the female subjects. Further, Table 4 indicates the numerical values of the thyroid-stimulating hormone concentration (μU/ml) in the plasma before the ingestion of the nicotinamide mononucleotide (0 weeks) and after the ingestion of the nicotinamide mononucleotide (24 weeks). Note that the numerical values represent mean values±standard deviation.

NC(=O)c1ccc[n+]([C@@H]2O[C@H](COP(=O)([O-])O)[C@@H](O)[C@H]2O)c1 [nicotinamide mononucleotide]
unidentified complaint (abdominal pain, nausea, vomiting, headache) or stool abnormality after the ingestion for 24 weeks ([1]; 100 mg and 200 mg/daily groups): did not show any unidentified complaint | unidentified complaint (abdominal pain, nausea, vomiting, headache) or stool abnormality after the ingestion for 24 weeks ([1]; 100 mg/daily): did not show any unidentified complaint | unidentified complaint (abdominal pain, nausea, vomiting, headache) or stool abnormality after the ingestion for 24 weeks ([1]; 200 mg/daily): did not show any unidentified complaint | testosterone concentration in the plasma, 0 weeks (before ingestion) ([2]; Female): 0.09 ± 0.06 ng/mL | testosterone concentration in the plasma, 24 weeks (after ingestion) ([2]; Female): 0.10 ± 0.05 ng/mL | testosterone concentration in the plasma, Change rate (24 weeks - 0 weeks) ([2]; Female): 0.00 ± 0.03 ng/mL | testosterone concentration in the plasma, 0 weeks (before ingestion) ([2]; Male): 5.66 ± 1.54 ng/mL | testosterone concentration in the plasma, 24 weeks (after ingestion) ([2]; Male): 5.90 ± 1.59 ng/mL | testosterone concentration in the plasma, Change rate (24 weeks - 0 weeks) ([2]; Male): 0.25 ± 0.92 ng/mL | testosterone concentration in the plasma, 0 weeks (before ingestion) ([2]; Whole Subjects): 2.87 ± 3.11 ng/mL | testosterone concentration in the plasma, 24 weeks (after ingestion) ([2]; Whole Subjects): 3.00 ± 3.24 ng/mL | testosterone concentration in the plasma, Change rate (24 weeks - 0 weeks) ([2]; Whole Subjects): 0.13 ± 0.63 ng/mL | testosterone concentrations in the plasma, effect of ingestion (in words) ([2]; oral, 200 mg/daily, 24 weeks, FIGS. 16a-16c, 17a-17c): increased | thyroid-stimulating hormone concentration in the plasma, 0 weeks (before ingestion) ([3]; Female): 2.56 ± 1.27 μU/ml | thyroid-stimulating hormone concentration in the plasma, 24 weeks (after ingestion) ([3]; Female): 2.61 ± 1.15 μU/ml | thyroid-stimulating hormone concentration in the plasma, Change rate (24 weeks - 0 weeks) ([3]; Female): 0.05 ± 0.98 μU/ml | thyroid-stimulating hormone concentration in the plasma, 0 weeks (before ingestion) ([3]; Male): 2.57 ± 1.65 μU/ml | thyroid-stimulating hormone concentration in the plasma, 24 weeks (after ingestion) ([3]; Male): 2.97 ± 1.52 μU/ml | thyroid-stimulating hormone concentration in the plasma, Change rate (24 weeks - 0 weeks) ([3]; Male): 0.40 ± 1.38 μU/ml | thyroid-stimulating hormone concentration in the plasma, 0 weeks (before ingestion) ([3]; Whole Subjects): 2.57 ± 1.39 μU/ml | thyroid-stimulating hormone concentration in the plasma, 24 weeks (after ingestion) ([3]; Whole Subjects): 2.79 ± 1.29 μU/ml | thyroid-stimulating hormone concentration in the plasma, Change rate (24 weeks - 0 weeks) ([3]; Whole Subjects): 0.23 ± 1.14 μU/ml | thyroid-stimulating hormone concentrations in the plasma, effect of ingestion (in words) ([3]; oral, 200 mg/daily, 24 weeks, FIGS. 8a-8c, 9a-9c): increased
